These results are taken from patent US10689367B2, “Triazole pyridyl compounds as agonists of the APJ receptor” (AMGEN INC., priority 2016, dated 2020).

human APJ receptor, sequence (P35414 whole entry): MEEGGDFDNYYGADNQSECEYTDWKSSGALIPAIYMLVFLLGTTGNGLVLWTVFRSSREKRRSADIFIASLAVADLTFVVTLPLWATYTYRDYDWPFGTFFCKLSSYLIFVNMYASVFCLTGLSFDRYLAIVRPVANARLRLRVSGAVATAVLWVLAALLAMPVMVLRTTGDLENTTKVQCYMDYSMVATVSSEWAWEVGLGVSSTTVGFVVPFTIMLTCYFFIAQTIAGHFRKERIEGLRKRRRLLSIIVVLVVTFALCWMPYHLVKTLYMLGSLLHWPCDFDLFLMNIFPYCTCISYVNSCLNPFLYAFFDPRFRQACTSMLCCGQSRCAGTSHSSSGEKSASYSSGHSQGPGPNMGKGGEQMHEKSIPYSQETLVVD

The assay concerns the target human APJ receptor (Homo sapiens (Human), UniProt P35414). Nature of the assay: [35S]GTPγS binding assay on membranes from CHO cells stably expressing human APJ receptor. The format is biochemical. Conditions: membranes of CHO cells stably expressing human APJ receptor, read-out: Activity hAPJ SPA EC50 IP. On the procedure:
The human APJ receptor was cloned by polymerase chain reaction and the gene encoding the receptor was subcloned in pFLAG-CMV™-3 expression vector (Sigma, Saint Louis, Mo. USA) in-house at Amgen. A GTPγS binding assay was performed on membranes prepared from CHO cells stably expressing human APJ receptor. The optimum experimental conditions for the concentrations of GDP, MgCl2, and NaCl in the assay buffer were initially determined. […] Incubation was at RT for 90 min and the microplate was read using a ViewLux™ ultra HTS Microplate Imager (PerkinElmer, Inc.). All the results presented are means of several independent experiments and analyzed by non-linear regression methods using the commercially available program Prism (GraphPad, San Diego, Calif.) providing the EC50 values detailed in Table 27.
(Binding of GTPγS marks nucleotide exchange on a G protein.)
As usually defined, the EC50 is the concentration that produces a half-maximal response. Turning to `CCOCCn1c(NS(=O)(=O)[C@@H](C)[C@H](OC)c2ncc(Cl)cn2)nnc1-c1cccc(OC)n1` [Example 22.0, (1R,2S)-1-(5-chloro-2-pyrimidinyl)-N-(4-(2-ethoxyethyl)-5-(6-methoxy-2-pyridinyl)-4H-1,2,4-triazol-3-yl)-1-methoxy-2-propanesulfonamide], the EC50 came out at 3.2 nM.

On to `COc1cccc(-c2nnc(NS(=O)(=O)[C@@H](C)[C@@H](OC(C)C)c3ncc(Cl)cn3)n2C(C)C)n1` [Example 177.0, (1S,2S)-1-(5-chloro-2-pyrimidinyl)-N-(5-(6-methoxy-2-pyridinyl)-4-(2-propanyl)-4H-1,2,4-triazol-3-yl)-1-(2-propanyloxy)-2-propanesulfonamide], for which the half-maximal effective concentration (EC50) stood at 8.9 nM.

For `COc1cccc(-c2nnc(NS(=O)(=O)[C@@H](C)[C@H](OC)c3ncc(Cl)cn3)n2C2CC2(F)F)n1` (mixture of isomers) [Example 156.0, (1R,2S)-1-(5-Chloropyrimidin-2-yl)-N-(4-((S)-2,2-difluorocyclopropyl)-5-(6-methoxypyridin-2-yl)-4H-1,2,4-triazol-3-yl)-1-methoxypropane-2-sulfonamide and (1R,2S)-1-(5-chloropyrimidin-2-yl)-N-(4-((R)-2,2-difluorocyclopropyl)-5-(6-methoxypyridin-2-yl)-4H-1,2,4-triazol-3-yl)-1-methoxypropane-2-sulfonamide], the EC50 came to 37 nM.

`CO[C@H](c1ncc(Cl)cn1)[C@H](C)S(=O)(=O)Nc1nnc(-c2cccnc2)n1C(C)C` [Example 134.0, (1R,2S)-1-(5-chloro-2-pyrimidinyl)-1-methoxy-N-(4-(2-propanyl)-5-(3-pyridinyl)-4H-1,2,4-triazol-3-yl)-2-propanesulfonamide]: the EC50 stood at 170 nM.

Regarding `CO[C@H](c1ncc(Cl)cn1)[C@H](C)S(=O)(=O)Nc1nnc(-c2cccc(C)n2)n1C1(C)CCC1` [Example 59.0], the EC50 turned out to be 28 nM.

Turning to `COc1cccc(-c2nnc(NS(=O)(=O)[C@@H](C)[C@H](OC)c3ncc(Cl)cn3)n2[C@@H](C)c2noc(C)n2)n1` (single isomer, unassigned) [Example 244.0, (1R,2S)-1-(5-chloro-2-pyrimidinyl)-1-methoxy-N-(5-(6-methoxy-2-pyridinyl)-4-((1R)-1-(5-methyl-1,2,4-oxadiazol-3-yl)ethyl)-4H-1,2,4-triazol-3-yl)-2-propanesulfonamide or (1R,2S)-1-(5-chloro-2-pyrimidinyl)-1-methoxy-N-(5-(6-methoxy-2-pyridinyl)-4-((1S)-1-(5-methyl-1,2,4-oxadiazol-3-yl)ethyl)-4H-1,2,4-triazol-3-yl)-2-propanesulfonamide], the EC50 is 8.2 nM.

`CCc1cc(Cn2c(NS(=O)(=O)[C@@H](C)[C@H](OC)c3ncc(Cl)cn3)nnc2-c2cncc(C)c2)on1` [Example 293.0, (1R,2S)-1-(5-chloropyrimidin-2-yl)-N-(4-((3-ethylisoxazol-5-yl)methyl)-5-(5-methylpyridin-3-yl)-4H-1,2,4-triazol-3-yl)-1-methoxypropane-2-sulfonamide]: the EC50 was 200 nM.

Consider `COc1cccc(-c2nnc(NS(=O)(=O)[C@@H](C)[C@H](OC)c3ncc(Cl)cn3)n2[C@@H]2[C@@H](OC)CCC[C@H]2OC)n1` [Example 185.0, (1R,2S)-1-(5-chloro-2-pyrimidinyl)-N-(4-((1r,2R,6 S)-2,6-dimethoxycyclohexyl)-5-(6-methoxy-2-pyridinyl)-4H-1,2,4-triazol-3-yl)-1-methoxy-2-propanesulfonamide], for which the EC50 is 7.2 nM.

`COC[C@@H](C)n1c(NS(=O)(=O)[C@@H](C)[C@@H](OC(C)C)c2ncc(Cl)cn2)nnc1-c1cccc(OC)n1` [Example 178.0, (1S,2S)-1-(5-chloro-2-pyrimidinyl)-N-(4-((2R)-1-methoxy-2-propanyl)-5-(6-methoxy-2-pyridinyl)-4H-1,2,4-triazol-3-yl)-1-(2-propanyloxy)-2-propanesulfonamide]: the EC50 was 0.32 nM.
